Measurements published in paper PMC6934498, “Neferine induces autophagy-dependent cell death in apoptosis-resistant cancers via ryanodine receptor and Ca^2+-dependent mechanism” (Scientific Reports, 2019).

Target: T1, SERCA1A (sarcoplasmic/endoplasmic reticulum Ca2+ ATPase) (Oryctolagus cuniculus, UniProt P04191)
T1 construct: gene ATP2A1; purified rabbit skeletal muscle SR membranes expressing the SERCA1A isoform
Experiment: coupled-enzyme ATPase assay on purified SERCA1A from rabbit skeletal muscle
Assay type: biochemical

T1 sequence (P04191 1-993): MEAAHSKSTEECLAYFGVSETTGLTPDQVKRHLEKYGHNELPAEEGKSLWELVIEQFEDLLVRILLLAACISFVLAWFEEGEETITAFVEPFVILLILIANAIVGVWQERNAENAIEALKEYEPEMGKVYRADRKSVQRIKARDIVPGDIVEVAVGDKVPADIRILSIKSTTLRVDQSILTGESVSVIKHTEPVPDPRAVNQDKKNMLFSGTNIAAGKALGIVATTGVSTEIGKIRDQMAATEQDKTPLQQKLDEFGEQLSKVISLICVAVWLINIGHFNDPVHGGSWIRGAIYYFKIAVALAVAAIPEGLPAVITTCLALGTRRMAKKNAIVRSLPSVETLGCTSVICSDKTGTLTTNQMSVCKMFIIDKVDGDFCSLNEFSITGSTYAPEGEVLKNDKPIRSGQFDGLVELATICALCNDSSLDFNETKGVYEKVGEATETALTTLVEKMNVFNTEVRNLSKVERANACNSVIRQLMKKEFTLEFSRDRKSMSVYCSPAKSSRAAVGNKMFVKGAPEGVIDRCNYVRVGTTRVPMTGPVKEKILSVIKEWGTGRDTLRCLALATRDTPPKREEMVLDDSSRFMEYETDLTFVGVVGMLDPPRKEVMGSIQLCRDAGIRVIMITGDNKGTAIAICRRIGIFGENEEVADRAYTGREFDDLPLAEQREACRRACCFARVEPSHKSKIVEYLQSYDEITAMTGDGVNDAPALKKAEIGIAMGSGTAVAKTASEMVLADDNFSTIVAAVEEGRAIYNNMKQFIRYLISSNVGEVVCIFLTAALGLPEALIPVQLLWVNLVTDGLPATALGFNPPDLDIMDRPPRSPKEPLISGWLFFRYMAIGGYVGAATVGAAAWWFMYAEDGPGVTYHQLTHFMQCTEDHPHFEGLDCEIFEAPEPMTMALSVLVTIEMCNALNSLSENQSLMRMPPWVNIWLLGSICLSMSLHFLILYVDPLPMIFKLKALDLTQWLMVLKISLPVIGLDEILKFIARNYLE

In the case of `COc1ccc(C[C@@H]2c3cc(Oc4cc(C[C@@H]5c6cc(OC)c(OC)cc6CCN5C)ccc4O)c(OC)cc3CCN2C)cc1` [neferine], the IC50 is reported as 320 ± 70 µM.
